Test results published in patent publication US11912794B2, “Modulation of structured polypeptide specificity” (BicycleRD Limited, priority 2011, dated 2024).
Like-named read-outs stand apart in the source and are kept apart here. Numbered stars: 1 amine (or outer) side, 2 acyl side, 3 side chain; on linkers, the order of the positions; unused ones are H or OH. Bridge positions count the residues as written; N and C are the ends. Square brackets hold non-standard residues; d marks the D form. Peptide text beside a SMILES is read from it. 1Nal = N[C@@H](Cc1cccc2ccccc12)C(=O)O; TBMB = c1c(C[*:1])cc(C[*:3])cc1C[*:2]; NMeR = CN[C@@H](CCCNC(=N)N)C(=O)O; 3Pal = N[C@@H](Cc1cccnc1)C(=O)O; 4Pal = N[C@@H](Cc1ccncc1)C(=O)O; Cha = N[C@@H](CC1CCCCC1)C(=O)O; Aze = O=C(O)[C@@H]1CCN1; Sar = CNCC(=O)O

Experiments:
human plasma Kallikrein = target: T1, human plasma Kallikrein (Homo sapiens, UniProt P03952); test: Functional enzyme inhibition assay, fluorogenic substrate Z-PheArg-AMC; format: biochemical; conditions: for loss in potency / reduction in affinity compared to wildtype: vs Ac-06-34-18(TMB)-NH2
T1 construct: purchased Stratech, UK
T1 sequence (P03952 20-638): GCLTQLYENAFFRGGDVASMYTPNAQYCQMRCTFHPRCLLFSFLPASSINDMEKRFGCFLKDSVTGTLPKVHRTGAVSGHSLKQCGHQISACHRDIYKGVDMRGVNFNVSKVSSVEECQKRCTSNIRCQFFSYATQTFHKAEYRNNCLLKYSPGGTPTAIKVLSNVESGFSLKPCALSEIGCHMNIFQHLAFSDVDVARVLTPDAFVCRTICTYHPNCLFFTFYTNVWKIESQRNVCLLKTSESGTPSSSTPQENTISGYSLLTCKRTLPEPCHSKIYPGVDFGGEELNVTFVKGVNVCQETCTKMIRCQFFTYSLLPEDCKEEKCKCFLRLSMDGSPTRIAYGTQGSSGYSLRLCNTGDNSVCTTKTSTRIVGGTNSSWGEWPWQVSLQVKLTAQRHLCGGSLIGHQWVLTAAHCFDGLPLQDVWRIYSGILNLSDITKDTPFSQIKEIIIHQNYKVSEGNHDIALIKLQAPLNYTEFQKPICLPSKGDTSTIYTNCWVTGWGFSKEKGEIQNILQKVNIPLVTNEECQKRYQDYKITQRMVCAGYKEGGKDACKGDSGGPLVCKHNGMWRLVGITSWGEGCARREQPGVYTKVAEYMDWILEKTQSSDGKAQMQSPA
Protocol: Peptides were dissolved as the TFA-salts in their powder form, and stock solutions were usually prepared in water. All solutions were centrifuged and filtered ([…] syringe filters) prior absorption measurement at 280 nm. […] For peptides containing non-natural amino acids with suspected chromophoric properties (i.e. NorHar, 4PhenylPro, 3PaI, 4PaI, Tic, 4GuanPhe, 4,4-BPAI, 3,3-DPA, 1NAI, 2NAI, 4BenzylPro, Ind) concentrations were determined by weighing the powder and dissolving the peptide in a defined quantity of water.

[1] = Plasma stability profiling method 1 (35% plasma, MALDI-TOF, qualitative); format: in vitro ADME, rat; conditions: method 1
Protocol: Three methods were employed to assess the stability of bicycles (peptides conjugated to molecular scaffolds) in plasma.
A rapid plasma stability profiling assay was developed that employed mass spectrometric detection (MALDI-TOF, Voyager DE, Applied Biosystems) of the parent mass, until the time when the parent peptide mass was no longer observable. Specifically, 200 uM of peptide was incubated in the presence of 35% rat or human plasma (Sera labs, using citrate as anticoagulant) at 37 deg C., which was supplemented with 1×PBS (derived from a 10×PBS Stock, Sigma). At various time points (i.e. t=0, 3, 24 hrs, henceafter daily up to 10 days), 2 uL of sample was added to 18 uL of 30 mM ammonium bicarbonate in a 1:1 mixture of acetonitrile:H2O. Samples were frozen at −80 deg C. until the time of analysis. For mass spectrometric analysis that determines the approximate detection window of the peptide, the acetonitrile:H2O-diluted sample of a given time point was spotted directly (0.7 uL) onto the MALDI plate. Matrix (alpha-cyanocinnamic acid, Sigma, prepared as a saturated solution in 1:1 acetonitrile:water containing 0.1% trifluoroacetic acid) was layered over the sample (1 uL). At a similar laser intensity setting on the MALDI TOF, the time could then be determined until parent peptide was no longer detectable. It should be noted that this is a qualitative assay serves to detect relative changes in plasma stability.

[2] = Ki (nM) (human kallikrein), Ac-06-34-18(TMB)-NH2 series

Structure (SMILES)	loss in potency / reduction in affinity compared to wildtype (human plasma Kallikrein) [fold]	Ki (human plasma Kallikrein; [2]) [nM]	other results
CC(C)C[C@@H]1NC(=O)[C@H](CC(=O)O)NC(=O)[C@H](CCC(N)=O)NC(=O)[C@H](Cc2c[nH]cn2)NC(=O)[C@H](C)NC(=O)[C@@H]2CSCc3cc(cc(c3)CSC[C@@H](C(=O)N[C@@H](C)C(N)=O)NC1=O)CSC[C@H](NC(=O)[C@H](C)N)C(=O)N[C@@H](C)C(=O)N[C@@H](Cc1c[nH]c3ccccc13)C(=O)N1CCC[C@H]1C(=O)N[C@@H](C)C(=O)N[C@@H](CCCNC(=N)N)C(=O)N2 [06-34-03 - Ala1,6] (H-ACAWPARCAHQDLCA-NH2; linker 2-8-14 via TBMB; N-terminus and C-terminus assumed)	–	–	potency against human plasma Kallikrein compared to parent (human plasma Kallikrein): retained full potency
CC(C)C[C@@H]1NC(=O)[C@H](CC(=O)O)NC(=O)[C@H](CCC(N)=O)NC(=O)[C@H](Cc2c[nH]cn2)NC(=O)CN(C)C(=O)[C@@H]2CSCc3cc(cc(c3)CSC[C@H](NC(=O)[C@H](C)N)C(=O)N(C)CC(=O)N[C@@H](Cc3c[nH]c4ccccc34)C(=O)N3CCC[C@H]3C(=O)N[C@@H](C)C(=O)N[C@@H](CCCNC(=N)N)C(=O)N2)CSC[C@@H](C(=O)N[C@@H](C)C(N)=O)NC1=O [06-34-03 - N-MeGly1,6, AC N-MeGWPARCN-MeGHQDLCA] (H-AC[Sar]WPARC[Sar]HQDLCA-NH2; linker 2-8-14 via TBMB; N-terminus and C-terminus assumed)	–	–	potency against human plasma Kallikrein compared to parent (human plasma Kallikrein): reduction in potency
CN=C(NC)NCCC[C@@H]1NC(=O)[C@H](C)NC(=O)[C@@H]2CCCN2C(=O)[C@H](Cc2c[nH]c3ccccc23)NC(=O)[C@H](CO)NC(=O)[C@@H](NC(C)=O)CSCc2cc3cc(c2)CSC[C@H](NC1=O)C(=O)N[C@@H](CC(C)C)C(=O)N[C@@H](Cc1c[nH]cn1)C(=O)N[C@@H](CCC(N)=O)C(=O)N[C@@H](CC(=O)O)C(=O)N[C@@H](CC(C)C)C(=O)N[C@H](C(N)=O)CSC3 [Ac-(06-34-18) SDMA5]	–	1410	–
CC(=O)N[C@H]1CSCc2cc3cc(c2)CSC[C@H](NC(=O)[C@H](CCCNC(=N)N)NC(=O)[C@H](Cc2ccc(O)cc2)NC(=O)[C@@H]2CCCN2C(=O)[C@H](Cc2ccncc2)NC(=O)[C@H](CO)NC1=O)C(=O)N[C@@H](CC(C)C)C(=O)N[C@@H](Cc1c[nH]cn1)C(=O)N[C@@H](CCC(N)=O)C(=O)N[C@@H](CC(=O)O)C(=O)N[C@@H](CC(C)C)C(=O)N[C@H](C(N)=O)CSC3 [Ac-(06-34-18) 4Pal2 Tyr4] (Ac-CS[4Pal]PYRCLHQDLC-NH2; linker 1-7-13 via TBMB)	–	3.56	–
CC(=O)N[C@H]1CSCc2cc3cc(c2)CSC[C@H](NC(=O)[C@H](CCCNC(=N)N)N(C)C(=O)[C@H](C)NC(=O)[C@@H]2CCCN2C(=O)[C@H](Cc2c[nH]c4ccccc24)NC(=O)[C@H](CO)NC1=O)C(=O)N[C@@H](CC(C)C)C(=O)N[C@@H](Cc1c[nH]cn1)C(=O)N[C@@H](CCC(N)=O)C(=O)N[C@@H](CC(=O)O)C(=O)N[C@@H](CC(C)C)C(=O)N[C@H](C(N)=O)CSC3 [Ac-(06-34-18) NMeArg5]	20	–	rat plasma stability [1]: exceeds the assay time
CC(=O)N[C@H]1CSCc2cc3cc(c2)CSC[C@H](NC(=O)[C@H](CCCNC(=N)N)NC(=O)[C@H](Cc2ccncc2)NC(=O)[C@@H]2CCCN2C(=O)[C@H](Cc2ccccc2)NC(=O)[C@H](CO)NC1=O)C(=O)N[C@@H](CC(C)C)C(=O)N[C@@H](Cc1c[nH]cn1)C(=O)N[C@@H](CCC(N)=O)C(=O)N[C@@H](CC(=O)O)C(=O)N[C@@H](CC(C)C)C(=O)N[C@H](C(N)=O)CSC3 [Ac-(06-34-18) Phe2 4Pal4] (Ac-CSFP[4Pal]RCLHQDLC-NH2; linker 1-7-13 via TBMB)	–	2.2	–
CC(=O)N[C@H]1CSCc2cc3cc(c2)CSC[C@H](NC(=O)[C@H](CCCNC(=N)N)NC(=O)[C@H](Cc2cccc4ccccc24)NC(=O)[C@@H]2CCCN2C(=O)[C@H](Cc2ccccc2)NC(=O)[C@H](CO)NC1=O)C(=O)N[C@@H](CC(C)C)C(=O)N[C@@H](Cc1c[nH]cn1)C(=O)N[C@@H](CCC(N)=O)C(=O)N[C@@H](CC(=O)O)C(=O)N[C@@H](CC(C)C)C(=O)N[C@H](C(N)=O)CSC3 [Ac-(06-34-18) Phe2 1Nal4] (Ac-CSFP[1Nal]RCLHQDLC-NH2; linker 1-7-13 via TBMB)	–	13.5	–
CC(=O)N[C@H]1CSCc2cc3cc(c2)CSC[C@H](NC(=O)[C@H](CCCNC(=N)N)NC(=O)[C@H](CC2CCCCC2)NC(=O)[C@@H]2CCCN2C(=O)[C@H](Cc2ccccc2)NC(=O)[C@H](CO)NC1=O)C(=O)N[C@@H](CC(C)C)C(=O)N[C@@H](Cc1c[nH]cn1)C(=O)N[C@@H](CCC(N)=O)C(=O)N[C@@H](CC(=O)O)C(=O)N[C@@H](CC(C)C)C(=O)N[C@H](C(N)=O)CSC3 [Ac-(06-34-18) Phe2 Cha4] (Ac-CSFP[Cha]RCLHQDLC-NH2; linker 1-7-13 via TBMB)	–	0.91	–
CC(=O)N[C@H]1CSCc2cc3cc(c2)CSC[C@H](NC(=O)[C@H](CCCNC(=N)N)NC(=O)[C@H](Cc2ccc(O)cc2)NC(=O)[C@@H]2CCCN2C(=O)[C@H](Cc2cccnc2)NC(=O)[C@H](CO)NC1=O)C(=O)N[C@@H](CC(C)C)C(=O)N[C@@H](Cc1c[nH]cn1)C(=O)N[C@@H](CCC(N)=O)C(=O)N[C@@H](CC(=O)O)C(=O)N[C@@H](CC(C)C)C(=O)N[C@H](C(N)=O)CSC3 [Ac-(06-34-18) 3Pal2 Tyr4] (Ac-CS[3Pal]PYRCLHQDLC-NH2; linker 1-7-13 via TBMB)	–	–	Ki (human plasma Kallikrein; Ki, text b293, unit inferred): 0.91 nM
CC(=O)N[C@H]1CSCc2cc3cc(c2)CSC[C@H](NC(=O)[C@H](CCCNC(=N)N)N(C)C(=O)[C@H](Cc2ccc(O)cc2)NC(=O)[C@@H]2CCN2C(=O)[C@H](Cc2ccccc2)NC(=O)[C@H](CO)NC1=O)C(=O)N[C@@H](CC(C)C)C(=O)N[C@@H](Cc1c[nH]cn1)C(=O)N[C@@H](CCC(N)=O)C(=O)N[C@@H](CC(=O)O)C(=O)N[C@@H](CC(C)C)C(=O)N[C@H](C(N)=O)CSC3 [Ac-(06-34-18) Phe2 Aze3Tyr4 NMeArg5] (Ac-CSF[Aze]Y[NMeR]CLHQDLC-NH2; linker 1-7-13 via TBMB)	–	–	Ki (human plasma Kallikrein; Ac-06-34-18(TMB)-NH2 series, read-out: Ki (nM) (human kallikrein)): < 1 nM
CC(C)C[C@@H]1NC(=O)[C@H](CC(=O)O)NC(=O)[C@H](CCC(N)=O)NC(=O)[C@H](Cc2c[nH]cn2)NC(=O)[C@H]([C@@H](C)O)NC(=O)[C@@H]2CSCc3cc(cc(c3)CSC[C@@H](C(=O)N[C@@H](C)C(N)=O)NC1=O)CSC[C@H](NC(=O)[C@H](C)N)C(=O)N[C@@H](CCCNC(=N)N)C(=O)N[C@@H](Cc1c[nH]c3ccccc13)C(=O)N1CCC[C@H]1C(=O)N[C@@H](C)C(=O)N[C@@H](CCCNC(=N)N)C(=O)N2 [Peptide 06-34-02] (H-ACRWPARCTHQDLCA-NH2; linker 2-8-14 via TBMB)	–	–	IC50 (human plasma Kallikrein): 0.16 nM

Continued, in another order:

loss in potency / reduction in affinity compared to wildtype (human plasma Kallikrein) [fold]	Structure (SMILES)	Ki (human plasma Kallikrein; [2]) [nM]	other results
45000	CC(=O)N[C@H]1CSCc2cc3cc(c2)CSC[C@H](NC(=O)[C@H](CCCNC(=N)N)NC(=O)[C@H](C)NC(=O)[C@@H]2CCCN2C(=O)[C@@H](Cc2c[nH]c4ccccc24)NC(=O)[C@H](CO)NC1=O)C(=O)N[C@@H](CC(C)C)C(=O)N[C@@H](Cc1c[nH]cn1)C(=O)N[C@@H](CCC(N)=O)C(=O)N[C@@H](CC(=O)O)C(=O)N[C@@H](CC(C)C)C(=O)N[C@H](C(N)=O)CSC3 [Ac-(06-34-18) D-Trp2]	–	–
2	CC(=O)N[C@H]1CSCc2cc3cc(c2)CSC[C@H](NC(=O)[C@H](Cc2ccc(NC(=N)N)cc2)NC(=O)[C@H](C)NC(=O)[C@@H]2CCCN2C(=O)[C@H](Cc2c[nH]c4ccccc24)NC(=O)[C@H](CO)NC1=O)C(=O)N[C@@H](CC(C)C)C(=O)N[C@@H](Cc1c[nH]cn1)C(=O)N[C@@H](CCC(N)=O)C(=O)N[C@@H](CC(=O)O)C(=O)N[C@@H](CC(C)C)C(=O)N[C@H](C(N)=O)CSC3 [Ac-(06-34-18) 4GuanPhe5]	–	–
300	CC(=O)N[C@H]1CSCc2cc3cc(c2)CSC[C@H](NC(=O)[C@@H](CCCNC(=N)N)NC(=O)[C@H](C)NC(=O)[C@@H]2CCCN2C(=O)[C@H](Cc2c[nH]c4ccccc24)NC(=O)[C@H](CO)NC1=O)C(=O)N[C@@H](CC(C)C)C(=O)N[C@@H](Cc1c[nH]cn1)C(=O)N[C@@H](CCC(N)=O)C(=O)N[C@@H](CC(=O)O)C(=O)N[C@@H](CC(C)C)C(=O)N[C@H](C(N)=O)CSC3 [Ac-(06-34-18) D-Arg5]	–	–
7000	CC(=O)N[C@H]1CSCc2cc3cc(c2)CSC[C@H](NC(=O)[C@H](CCCNC(=N)N)NC(=O)[C@@H](C)NC(=O)[C@@H]2CCCN2C(=O)[C@H](Cc2c[nH]c4ccccc24)NC(=O)[C@H](CO)NC1=O)C(=O)N[C@@H](CC(C)C)C(=O)N[C@@H](Cc1c[nH]cn1)C(=O)N[C@@H](CCC(N)=O)C(=O)N[C@@H](CC(=O)O)C(=O)N[C@@H](CC(C)C)C(=O)N[C@H](C(N)=O)CSC3 [Ac-(06-34-18) D-Ala4]	–	–
